Results as given in ChEMBL document CHEMBL1134180, “Synthesis and biological evaluation of DNA targeting flexible side-chain substituted beta-carboline derivatives” (Bioorg Med Chem Lett, 2001).
pIC50: −log10 of the molar value.

Legend:
KB = experiment: Inhibitory concentration against KB cancer cell lines was determined.; format: functional, cell-based; conditions: Homo sapiens
HL-60 = experiment: Inhibitory concentration against Human leukemia cancer cell (HL-60)lines was determined.; format: functional, cell-based
BGC-823 = experiment: Inhibitory concentration against Human Gastric cancer cell (BGC)lines was determined.; format: functional, cell-based; conditions: BGC-823, Stomach
HeLa = experiment: Inhibitory concentration against Hella cancer cell lines was determined.; format: functional, cell-based; conditions: Homo sapiens
Homo sapiens = species on record: Homo sapiens; experiment: Inhibitory concentration against Human Gastric cancer cell (BGC) lines was determined.; format: functional; conditions: Stomach

Compound | pIC50 (KB) | pIC50 (HL-60) | pIC50 (BGC-823) | pIC50 (HeLa) | pIC50 (Homo sapiens)
NCCNC(=O)c1cc2c3ccccc3nc-2c[nH]1 | 3.85 | 4.09 | – | – | –
CCN(CC)CCNC(=O)c1cc2c3ccccc3nc-2c[nH]1 | 3.60 | 3.89 | 4.01 | – | –
NCCCCNC(=O)c1cc2c(cn1)[nH]c1ccccc12 | 5.39 | 5.72 | 5.07 | – | –
NCCCCCCNC(=O)c1cc2c3ccccc3nc-2c[nH]1 | – | 3.29 | – | – | –
CN(C)CCCCNC(=O)c1cc2c3ccccc3nc-2c[nH]1 | – | – | – | 3.85 | –
O=c1[nH]cc(F)c(=O)[nH]1 [FLUOROURACIL] | 5.46 | 6.00 | – | 5.80 | 4.17
